# Laboratory results reported in ChEMBL document CHEMBL1777706, “Discovery of selective and orally available spiro-3-piperidyl ATP-competitive MK2 inhibitors” (Bioorg Med Chem Lett, 2011).
# Active and inactive are the calls of the source. The calls are words filed in the database; no cut-off is given here.
# System: not listed separately
# Test: AUC in po dosed rat
# Assay type: ADME, organism-based
# Conditions: plasma
row,AUC,SMILES
1,< 6 nM·h,O=C1NCC2(CCNCC2)c2[nH]c(-c3ccnc(-c4cc5ccccc5o4)n3)cc21
2,< 6 nM·h,O=C1NCC2(CCNCC2)c2[nH]c(-c3ccnc(-c4ccc5c(c4)OCO5)n3)cc21

# Target: Serine/threonine-protein kinase Chk2 (Homo sapiens) (UniProt O96017)
# Test: Inhibition of CHK2 at 1 uM
# Conditions: not given
# Chain of Serine/threonine-protein kinase Chk2 (Homo sapiens) (O96017 whole entry): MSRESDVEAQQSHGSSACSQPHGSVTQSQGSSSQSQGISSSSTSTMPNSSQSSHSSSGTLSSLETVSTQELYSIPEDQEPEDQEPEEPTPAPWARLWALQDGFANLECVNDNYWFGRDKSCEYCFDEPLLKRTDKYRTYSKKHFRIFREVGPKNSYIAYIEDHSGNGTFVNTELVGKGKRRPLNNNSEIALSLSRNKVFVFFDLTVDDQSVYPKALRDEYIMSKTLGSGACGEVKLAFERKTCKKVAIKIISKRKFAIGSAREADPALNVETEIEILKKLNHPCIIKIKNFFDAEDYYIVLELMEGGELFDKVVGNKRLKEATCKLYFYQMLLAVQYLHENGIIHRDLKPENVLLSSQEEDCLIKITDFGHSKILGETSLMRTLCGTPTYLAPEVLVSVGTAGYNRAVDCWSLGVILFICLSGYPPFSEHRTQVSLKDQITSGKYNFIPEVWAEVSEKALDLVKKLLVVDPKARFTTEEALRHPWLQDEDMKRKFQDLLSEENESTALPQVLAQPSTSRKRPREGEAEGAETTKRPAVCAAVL
row,inhibition,SMILES
1,> 80%,O=C1NC[C@]2(CCCNC2)c2[nH]c(-c3ccnc(-c4ccc5c(c4)OCO5)n3)cc21
2,> 80%,O=C1NCC2(CCNCC2)c2[nH]c(-c3ccnc(-c4cc5ccccc5o4)n3)cc21
3,> 80%,O=C1NCC2(CCNCC2)c2[nH]c(-c3ccnc(-c4ccc5c(c4)OCO5)n3)cc21

# Target: Serine/threonine-protein kinase pim-3 (Homo sapiens) (UniProt Q86V86)
# Test: Inhibition of PIM3 at 1 uM
# Conditions: not given
row,inhibition,SMILES
1,> 80%,O=C1NC[C@]2(CCCNC2)c2[nH]c(-c3ccnc(-c4ccc5c(c4)OCO5)n3)cc21
2,> 80%,O=C1NCC2(CCNCC2)c2[nH]c(-c3ccnc(-c4cc5ccccc5o4)n3)cc21
3,> 80%,O=C1NCC2(CCNCC2)c2[nH]c(-c3ccnc(-c4ccc5c(c4)OCO5)n3)cc21

# System: not listed separately
# Test: Inhibition of p38
# Conditions: not given
row,inhibition,SMILES
1,inactive,O=C1NC[C@]2(CCCNC2)c2[nH]c(-c3ccnc(-c4ccc5c(c4)OCO5)n3)cc21
2,inactive,O=C1NCC2(CCNCC2)c2[nH]c(-c3ccnc(-c4cc5ccccc5o4)n3)cc21
3,inactive,O=C1NCC2(CCNCC2)c2[nH]c(-c3ccnc(-c4ccc5c(c4)OCO5)n3)cc21

# Target: T1, MAP kinase-activated protein kinase 2 (Homo sapiens, UniProt P49137)
# Test: Inhibition of MK2 in LPS-stimulated human THP1 cells assessed as inhibition of Hsp27 phosphorylation pretreated 60 mins before LPS challenge measured after 10 mins
# Assay type: cell-based, THP-1
# Conditions: not given
# T1 sequence (P49137 whole entry): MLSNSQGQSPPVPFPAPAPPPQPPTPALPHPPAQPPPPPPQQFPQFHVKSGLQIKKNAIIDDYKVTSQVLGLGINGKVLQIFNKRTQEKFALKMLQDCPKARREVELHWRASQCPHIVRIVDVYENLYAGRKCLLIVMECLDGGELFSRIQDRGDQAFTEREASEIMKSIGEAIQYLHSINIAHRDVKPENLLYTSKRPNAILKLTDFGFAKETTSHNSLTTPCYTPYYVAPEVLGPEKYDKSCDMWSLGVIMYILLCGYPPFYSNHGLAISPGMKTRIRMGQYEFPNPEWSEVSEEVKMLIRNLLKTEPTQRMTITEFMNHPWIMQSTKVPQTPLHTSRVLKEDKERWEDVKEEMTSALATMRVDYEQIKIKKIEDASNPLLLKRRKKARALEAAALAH
row,EC50,SMILES
1,7700 nM,O=C1NC[C@]2(CCCNC2)c2[nH]c(-c3ccnc(-c4ccc5c(c4)OCO5)n3)cc21
2,1200 nM,O=C1NCC2(CCNCC2)c2[nH]c(-c3ccnc(-c4cc5ccccc5o4)n3)cc21
3,620 nM,O=C1NCC2(CCNCC2)c2[nH]c(-c3ccnc(-c4ccc5c(c4)OCO5)n3)cc21

# Target: Mitogen-activated protein kinase 3 (Homo sapiens) (UniProt P27361)
# Test: Inhibition of ERK1 at 1 uM
# Conditions: not given
# Chain of Mitogen-activated protein kinase 3 (Homo sapiens) (P27361 whole entry): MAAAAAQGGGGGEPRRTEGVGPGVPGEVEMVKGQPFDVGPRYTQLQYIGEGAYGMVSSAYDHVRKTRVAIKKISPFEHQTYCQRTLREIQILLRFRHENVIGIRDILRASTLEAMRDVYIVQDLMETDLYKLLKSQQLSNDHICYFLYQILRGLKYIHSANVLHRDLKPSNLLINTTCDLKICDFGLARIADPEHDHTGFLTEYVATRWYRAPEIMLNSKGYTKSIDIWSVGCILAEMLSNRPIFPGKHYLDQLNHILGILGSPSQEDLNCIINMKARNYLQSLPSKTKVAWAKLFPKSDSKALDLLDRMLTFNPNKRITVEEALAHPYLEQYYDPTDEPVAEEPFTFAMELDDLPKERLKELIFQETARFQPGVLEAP
row,inhibition,SMILES
1,> 80%,O=C1NC[C@]2(CCCNC2)c2[nH]c(-c3ccnc(-c4ccc5c(c4)OCO5)n3)cc21
2,> 80%,O=C1NCC2(CCNCC2)c2[nH]c(-c3ccnc(-c4cc5ccccc5o4)n3)cc21
3,> 80%,O=C1NCC2(CCNCC2)c2[nH]c(-c3ccnc(-c4ccc5c(c4)OCO5)n3)cc21

# System: PBMC
# Test: Antiinflammatory activity in human PBMC cells assessed as inhibition of LPS-induced TNFalpha production pretreated 30 mins before LPS challenge measured after 4 hrs by ELISA
# Assay type: functional, cell-based
# Conditions: not given
row,SMILES,EC50
1,O=C1NC[C@]2(CCCNC2)c2[nH]c(-c3ccnc(-c4ccc5c(c4)OCO5)n3)cc21,3000 nM

# Target: T2, Serine/threonine-protein kinase 17A (Homo sapiens) (UniProt Q9UEE5)
# T2 sequence (whole entry): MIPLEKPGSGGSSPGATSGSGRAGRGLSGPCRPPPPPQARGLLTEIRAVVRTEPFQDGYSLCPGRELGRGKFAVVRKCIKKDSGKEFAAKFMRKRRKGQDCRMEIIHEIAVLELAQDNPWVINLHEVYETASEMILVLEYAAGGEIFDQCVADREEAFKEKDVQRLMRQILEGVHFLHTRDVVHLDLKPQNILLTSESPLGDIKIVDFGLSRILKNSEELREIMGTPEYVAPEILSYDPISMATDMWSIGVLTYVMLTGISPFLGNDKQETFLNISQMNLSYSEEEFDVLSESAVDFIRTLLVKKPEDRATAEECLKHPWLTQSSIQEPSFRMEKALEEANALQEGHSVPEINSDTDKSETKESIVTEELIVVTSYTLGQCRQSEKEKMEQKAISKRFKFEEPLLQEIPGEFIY
# Test: Inhibition of DRAK1 at 1 uM
# Conditions: not given
row,inhibition,SMILES
1,> 80%,O=C1NC[C@]2(CCCNC2)c2[nH]c(-c3ccnc(-c4ccc5c(c4)OCO5)n3)cc21
2,> 80%,O=C1NCC2(CCNCC2)c2[nH]c(-c3ccnc(-c4cc5ccccc5o4)n3)cc21
3,> 80%,O=C1NCC2(CCNCC2)c2[nH]c(-c3ccnc(-c4ccc5c(c4)OCO5)n3)cc21

# System: not listed separately
# Test: Oral bioavailability in mouse
# Assay type: ADME, organism-based
# Conditions: in vivo
row,bioavailability,SMILES
1,0.7%,O=C1NCC2(CCNCC2)c2[nH]c(-c3ccnc(-c4ccc5c(c4)OCO5)n3)cc21

# System: not listed separately
# Test: Half life in rat liver microsomes
# Assay type: ADME, Microsome
# Conditions: not given
row,half-life,SMILES
1,> 1 h,O=C1NCC2(CCNCC2)c2[nH]c(-c3ccnc(-c4cc5ccccc5o4)n3)cc21
2,> 1 h,O=C1NCC2(CCNCC2)c2[nH]c(-c3ccnc(-c4ccc5c(c4)OCO5)n3)cc21

# System: THP-1
# Test: Cytotoxicity against human THP1 cells by Alamar blue assay
# Assay type: cell-based
# Conditions: not given
row,SMILES,Activity
1,O=C1NCC2(CCNCC2)c2[nH]c(-c3ccnc(-c4cc5ccccc5o4)n3)cc21,> 10 µM

# System: not listed separately
# Test: Dissociation constant, pKa of the compound at pH 7.4
# Assay type: physicochemical
# Conditions: not given
row,pKa,SMILES
1,9.1,O=C1NCC2(CCNCC2)c2[nH]c(-c3ccnc(-c4cc5ccccc5o4)n3)cc21
2,9.3,O=C1NCC2(CCNCC2)c2[nH]c(-c3ccnc(-c4ccc5c(c4)OCO5)n3)cc21

# System: THP-1
# Test: Antiinflammatory activity in human THP1 cells assessed as inhibition of LPS-induced TNFalpha production pretreated 30 mins before LPS challenge measured after 4 hrs
# Assay type: functional, cell-based
# Conditions: not given
row,EC50,SMILES
1,8300 nM,O=C1NC[C@]2(CCCNC2)c2[nH]c(-c3ccnc(-c4ccc5c(c4)OCO5)n3)cc21
2,280 nM,O=C1NCC2(CCNCC2)c2[nH]c(-c3ccnc(-c4cc5ccccc5o4)n3)cc21
3,910 nM,O=C1NCC2(CCNCC2)c2[nH]c(-c3ccnc(-c4ccc5c(c4)OCO5)n3)cc21

# System: not listed separately
# Test: Half life in human liver microsomes
# Assay type: ADME, Microsome
# Conditions: not given
row,half-life,SMILES
1,> 1 h,O=C1NCC2(CCNCC2)c2[nH]c(-c3ccnc(-c4cc5ccccc5o4)n3)cc21
2,> 1 h,O=C1NCC2(CCNCC2)c2[nH]c(-c3ccnc(-c4ccc5c(c4)OCO5)n3)cc21

# Target: Mitogen-activated protein kinase 1 (Homo sapiens) (UniProt P28482)
# Test: Inhibition of ERK2 at 1 uM
# Conditions: not given
# Chain of Mitogen-activated protein kinase 1 (Homo sapiens) (P28482 whole entry, looked up): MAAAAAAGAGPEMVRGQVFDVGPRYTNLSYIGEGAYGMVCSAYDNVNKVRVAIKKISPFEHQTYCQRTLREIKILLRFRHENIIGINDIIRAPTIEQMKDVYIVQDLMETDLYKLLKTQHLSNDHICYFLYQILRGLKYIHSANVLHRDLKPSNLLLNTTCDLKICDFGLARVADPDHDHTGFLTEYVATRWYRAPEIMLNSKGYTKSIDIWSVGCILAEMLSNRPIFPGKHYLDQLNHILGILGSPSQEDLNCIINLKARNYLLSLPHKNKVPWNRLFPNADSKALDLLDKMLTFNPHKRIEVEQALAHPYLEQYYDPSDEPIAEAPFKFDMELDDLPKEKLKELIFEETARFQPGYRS
row,inhibition,SMILES
1,> 80%,O=C1NC[C@]2(CCCNC2)c2[nH]c(-c3ccnc(-c4ccc5c(c4)OCO5)n3)cc21
2,> 80%,O=C1NCC2(CCNCC2)c2[nH]c(-c3ccnc(-c4cc5ccccc5o4)n3)cc21
3,> 80%,O=C1NCC2(CCNCC2)c2[nH]c(-c3ccnc(-c4ccc5c(c4)OCO5)n3)cc21

# Target: Serine/threonine-protein kinase pim-1 (Homo sapiens) (UniProt P11309)
# Test: Inhibition of PIM1 at 1 uM
# Conditions: not given
# Chain of Serine/threonine-protein kinase pim-1 (Homo sapiens) (P11309 whole entry, looked up): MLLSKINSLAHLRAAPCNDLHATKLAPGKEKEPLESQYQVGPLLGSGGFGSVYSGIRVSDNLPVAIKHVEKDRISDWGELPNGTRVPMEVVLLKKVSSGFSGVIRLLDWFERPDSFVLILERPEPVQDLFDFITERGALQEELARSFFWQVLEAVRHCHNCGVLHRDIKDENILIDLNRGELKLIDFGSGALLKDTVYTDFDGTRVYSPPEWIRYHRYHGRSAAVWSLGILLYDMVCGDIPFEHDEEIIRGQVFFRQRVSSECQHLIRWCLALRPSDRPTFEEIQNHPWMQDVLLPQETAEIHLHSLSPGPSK
row,inhibition,SMILES
1,> 80%,O=C1NC[C@]2(CCCNC2)c2[nH]c(-c3ccnc(-c4ccc5c(c4)OCO5)n3)cc21
2,> 80%,O=C1NCC2(CCNCC2)c2[nH]c(-c3ccnc(-c4cc5ccccc5o4)n3)cc21
3,> 80%,O=C1NCC2(CCNCC2)c2[nH]c(-c3ccnc(-c4ccc5c(c4)OCO5)n3)cc21

# Target: T1, MAP kinase-activated protein kinase 2
# Test: Inhibition of MK2 pretreated for 30 mins before fluorescein labeled substrate peptide addition measured after 2 hrs by IMAP assay
# Conditions: not given
row,EC50,SMILES
1,91 nM,O=C1NC[C@]2(CCCNC2)c2[nH]c(-c3ccnc(-c4ccc5c(c4)OCO5)n3)cc21
2,5.9 nM,O=C1NCC2(CCNCC2)c2[nH]c(-c3ccnc(-c4cc5ccccc5o4)n3)cc21
3,4.3 nM,O=C1NCC2(CCNCC2)c2[nH]c(-c3ccnc(-c4ccc5c(c4)OCO5)n3)cc21

# System: not listed separately
# Test: in vitro
# Conditions: human, Caco-2
# Description: Permeability across human Caco2 cells
row,Papp,SMILES
1,0.1 ×10⁻⁶ cm/s,O=C1NCC2(CCNCC2)c2[nH]c(-c3ccnc(-c4ccc5c(c4)OCO5)n3)cc21
